“Also recorded” adds a separate entry of the source.
Key:
A549 cells = assay: CyQUANT cell proliferation assay; assay type: cell-based, human; conditions: 72 hours; for effect on cell proliferation: concentrations up to 20 μM
Description: S8. Cell growth, cell cycle and pERK signaling study
Cell proliferation was measured with the CyQUANT® Direct Cell Proliferation Assay Kit (Thermo Fisher, #C35011). A549 cells were cultured in 96-well plates at a density of 1,000 cells/well and treated with different concentrations of MIF PROTAC (0.02-20 μM) for 72 h.
Cells were incubated with detection reagent (100 μL) for 60 min at 37 °C with 5% CO2. The fluorescence of each well was read at 485/535nm by plate reader (BioTek).
Figure S8. Cells were seeded with a density of 1000 cells per well in a 96-well plate. After overnight incubation, the cells were treated with various concentration of MD13 for 72 hours.
The resulting cells were quantified by CyQUANT® cell proliferation assays and compared with the vehicle (DMSO) control (n=3). […]
(also on this page, place not known: (0.02 -20 CO 2. (20 µM) 4 (20 µM) µM 20 µM 0.01 µM 0.08 µM 0.74 µM 6.7 µM 20 µM 0 50 100 Cell (%) H441 n.s. * * ** *** * n.s. MD15 96 -well MD13 proliferation control 96 -well round - 2 3) […]
(1 picture or pasted object on this page, not shown here)

MIF = molecular target: T1, MIF (Homo sapiens, UniProt P14174); assay: MIF catalyzed 4-HPP tautomerization assay; assay type: biochemical; conditions: for IC50: 4-HPP conversion assay; for Ki: MIF catalyzed 4-HPP tautomerization, n=3
T1 sequence (P14174 2-115 limits assumed): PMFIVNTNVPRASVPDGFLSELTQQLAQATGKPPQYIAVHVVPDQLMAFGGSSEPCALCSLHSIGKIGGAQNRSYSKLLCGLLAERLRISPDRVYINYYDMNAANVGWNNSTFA
Description: S2. MIF Tautomerase activity IC50 study
The protocol for measuring inhibition of MIF tautomerase enzyme activity and enzyme kinetics was described previously.[8] Briefly, 180 µL of a 500 nM MIF solution in boric acid buffer (435 mM, pH 6.2) was mixed with 10 µL of a 20 mM EDTA solution in demiwater and 10 µL of a solution of the desired compound dissolved in DMSO or blanc DMSO. This mixture was pre-incubated at room temperature for 10 min. Next, 50 µL of this mixture was mixed with 50 µL of a 1 mM 4-HPP solution in ammonium acetate buffer (50 mM, pH 6.0). Subsequently, MIF tautomerase activity was monitored by measuring the increase of UV absorbance at 306 nm over time. MIF tautomerase activity in the presence a blank DMSO dilution was set to 100% enzyme activity. Non-catalyzed conversion of the substrate in absence of MIF was set to 0%.
Data from the first three minutes were used to calculate the initial velocities. All experiments were repeated three times and calculations were performed with the program GraphPad Prism.
Table S1. 4-HPP conversion assay results of MIF PROTACs
(also on this page, place not known: p rotocol previously. subs trate log [MD-1] (10^-6 M) Activity of MIF tautomerase(%) -2 -1 0 1 2 0 50 100 log [MD-2] (10^-6 M) Activity of MIF tautomerase(%) -2 -1 0 1 2 0 50 100)

A549 cell spheroids = assay: 3D tumor spheroid assay; assay type: cell-based, human; conditions: 12 days; for influence on spheroid tumor growth: 5 μM
Description: A 3D spheroid model was employed to investigate the effect of longer term MD13 treatment in a more complex model for tumor growth. The 3D spheroid model was established using A549 cancer cells by a method adapted from Feng et al.[48] The spheroids were grown over a 12‐day period in absence or presence of PROTAC MD13. Each spheroid was prepared from about 1000 A549 cells. After three‐day incubation, these spheroids were treated with 1, 2, or 5 μM of MD13 with 72 hours intervals over 12 days. Spheroid growth was monitored by measuring the diameter and this was compared to day 0 of the treatment. The tumor spheroids in MD13 treated groups were significant smaller compared to the control group (Figure 5 B and Figure S9). With continuous exposure to 1, 2, or 5 μM of MD13 for 12 days, the growth of the spheroid tumor volume was inhibited by 42 %, 53 %, and 81 % compared with control group, respectively. […]
Tumor spheroid assay. A549 cells (1000 cells/well) were seeded onto a 96-well round-bottomed ultra low attachment plate (Corning). After 2 days of incubation without disturbance, the spheroid was treated with indicated compound every 3 days. […]
(1 picture or pasted object on this page, not shown here) […]
inverted microscope (Nikon Eclipse Ti) connected with a NIS-elements software. The data were analyzed and plotted with Graphpad Prism8. […]
cells were seeded in an ultralow attachment 96-well round-bottomed plate (1000 cells/well) to generate tumor spheroids (a single spheroid per well). After initiation, the spheroids were treated with different compounds at the indicated concentrations every three days. DMSO was used as vehicle control. The day of the first treatment was indicated as day 0. (A) Representative images were obtained at the indicated intervals using an inverted microscope. Scale bar: 500 μm. (B) Analysis was carried out using NIS-Elements AR 3.1 software, and growth curves were obtained relative to the untreated spheroids (day 0) and plotted with GraphPad Prism 8. Values are shown as means ± SD (n = 3 spheroids/time point, **p < 0.01 vs control). […]

ERK phosphorylation = ERK phosphorylation by western blot; assay type: cell-based, human; conditions: A549, 2 μM; for effect on pERK levels: 3 and 4 for 24 h, MD15 for 6, 24 or 48 h
Description: The effect of treatment with MIF‐directed PROTAC MD13 on MIF‐related signaling pathways was investigated by assessment of ERK phosphorylation using western blot analysis. […] Thus treatment with the MIF‐directed PROTAC MD13 inhibits ERK phosphorylation as a MIF‐related signaling event. […]
ERK signaling pathway study. A549 cells (2x10^5 cells per well) were seeded into each well of a 6-well plate with 2 mL RPMI-1640 medium containing 10% FBS (Costar Europe, Badhoevedorp, The Netherlands), and 1% penicillin/streptomycin solution (Corning). After overnight culturing, the cells were treated with MD13, MD15, or DMSO for the time indicated.
After that, cells were lysed by RIPA buffer containing 1× PhosSTOP and protease inhibitor (PI) cocktail (Roche, Mannheim, Germany). The BCA Protein Assay Kit (Pierce, Rockford IL, USA) was used to determine the protein concentration. 30 µg protein was separated by a pre-cast 10% NuPAGE Bis-Tris gel (Invitrogen, USA) and then transferred to a polyvinylidene difluoride (PVDF) membrane. After blocking with 5% of skimmed milk for 1 hour at room temperature and incubation with the appropriate primary antibody (pERK, #9101, Cell Signaling, 1:1000; GAPDH, #97166, Cell Signaling, 1:10000) overnight at 4 °C, the membrane was treated with an HRP-conjugated secondary goat anti-rabbit antibody (#P0448, Dako, 1:2000) or rabbit anti-mouse antibody (#P0260, Dako, 1:2000) at room temperature for 1 hour.
The protein bands were visualized with enhanced chemiluminescence (ECL) solution (GE Healthcare). The figures were quantified with imageJ software based on grayscale. […]

Structure (SMILES)	inhibition at 20 µM (A549 cells; Homo sapiens, 20 μM, 2D culture) [%]	IC50 (MIF) [nM]	Ki (MIF) [nM]	inhibition at 1 µM (A549 cell spheroids; Homo sapiens, A549, 1 μM, treated every three days, read-out: inhibition of growth of spheroid tumor volume) [%]	inhibition at 2 µM (A549 cell spheroids; Homo sapiens, A549, 2 μM, treated every three days, read-out: inhibition of growth of spheroid tumor volume) [%]	inhibition at 5 µM (A549 cell spheroids; Homo sapiens, A549, 5 μM, treated every three days, read-out: inhibition of growth of spheroid tumor volume) [%]	inhibition at 2 µM (ERK phosphorylation; Homo sapiens, 24-hour treatment) [%]	effect on cell proliferation (A549 cells)	influence on spheroid tumor growth (A549 cell spheroids)	effect on pERK levels (ERK phosphorylation)
O=C1CCC(N2C(=O)c3cccc(NCCCCCCCC(=O)Nc4ccc(N5Cc6ccc(O)cc6OC5=O)cc4)c3C2=O)C(=O)N1 (stereo not shown) [MD13]	~50	106 ± 7	71 ± 5	42	53	81	~50	–	–	–
CN1C(=O)CCC(N2C(=O)c3cccc(NCCCCCCCC(=O)Nc4ccc(N5Cc6ccc(O)cc6OC5=O)cc4)c3C2=O)C1=O (stereo not shown) [MD15]	–	83 ± 18	55 ± 12	–	–	–	–	almost no inhibition; also recorded: no or little effect	no significant influence	no significant decrease
COc1ccc(N2Cc3ccc(O)cc3OC2=O)cc1OC [compound 3]	–	–	103 ± 10	–	–	–	–	no effect; also recorded: no or little effect	no significant influence	no significant decrease

From PMC8362126, “Proteolysis Targeting Chimera (PROTAC) for Macrophage Migration Inhibitory Factor (MIF) Has Anti‐Proliferative Activity in Lung Cancer Cells” (Angewandte Chemie (International Ed. in English), 2021)
